Patent US20070116743A1, “Dietary supplement enhancing the muscular energy metabolism, comprising an alkanoyl carnitine and ribose” (Sigma-Tau Industrie Farmaceutiche Riunite S.p.A., priority 2000, published 2007)

Assays:
[1] = test system: ventricular arrhythmias induced by left coronary ligation in the rat; assay: Experimental myocardial anoxia test: ventricular arrhythmias induced by left coronary ligation; assay type: in vivo; settings: for N. of ectopic contractions during 30 minutes after ligation / Start of arrhythmias after: rat, left coronary ligation, slow injection into left ventricle 15 minutes before ligation (100 mg/kg each agent; carnitine combination 25 mg/kg per component); for Reduction in number of ectopic contractions compared to controls (in words): summary of Table 2
From the text: Experimental Myocardial Anoxia Test
Adopting the technique described by Selych (Selych et al., Angiology, 11, 398, 1960) and modified by Clark (Clark C., J. Pharmacol. Methods, 3, 357, 1980), these tests were used to evaluate the protective activity of isovaleryl L-carnitine, propionyl L-carnitine, carnitine combination, ribose and various combinations of the same against ventricular arrhythmias induced by left coronary ligation in the rat.
Coronary occlusion and the resulting myocardial anoxia lead, after 5-8 minutes, to the onset of arrhythmias. In these tests, ventricular ectopic contractions were counted for a period of 30 minutes after ligation both in control rats and in rats that had received slow injections into the left ventricle, 15 minutes before ligation, of a solution containing isovaleryl L-carnitine alone (100 mg/kg), propionyl L-carnitine alone (100 mg/kg), or carnitine combination alone consisting of propionyl L-carnitne (25 mg/kg), acetyl L-carnitine (25 mg/kg) and isovaleryl L-carnitine (25 mg/kg) or ribose alone (100 mg/kg), or a combination of ribose plus isovaleryl L-carnitine or propionyl L-carnitine or a combination of ribose plus carnitine combination at the doses described above.

[2] = test system: papillary muscle of rabbit heart; assay: Test of ATP concentrations in papillary muscle of heart subjected to anoxia; assay type: in vivo, New Zealand rabbits; settings: summary of Table 1
From the text: Test of ATP Concentrations in Heart Subjected to Anoxia In this test the technique adopted was the one using papillary muscle of rabbit heart perfused and subjected to anoxia which, as is known, leads to an impoverishment of its ATP energy reserves. […] At the end of the third day of treatment, all the animals were sacrificed and their hearts excised. Sections of papillary muscle measuring 1 mm in diameter and 4-5 mm in thickness were isolated from the excised hearts. The isolated papillary muscle was perfused in a thermostatic bath with a saturated 100% O2 solution. The anoxic state was obtained by introducing 100% N2 instead of O2 into the bath. For the measurement of the ATP concentrations in the […] muscle the method described by […] was adopted ([…]. Methods in Enzymology 111 N.Y. Acad. Press., 879, 1957).

Structure (SMILES) | N. of ectopic contractions during 30 minutes after ligation [1] | Start of arrhythmias after [1] [min] | Reduction in number of ectopic contractions compared to controls (in words) [1] | Protection of ATP in papillary muscle against anoxia (in words) [2]
CC(C)CC(=O)O[C@H](CC(=O)[O-])C[N+](C)(C)C [Isovaleryl L-carnitine] | 860 ± 75 | 5 to 7 | only slight reductions | partly protecting
CCC(=O)O[C@H](CC(=O)[O-])C[N+](C)(C)C [Propionyl L-carnitine] | 830 ± 86 | 5 to 8 | only slight reductions | partly protecting
O=C[C@H](O)[C@H](O)[C@H](O)CO [Ribose] | 855 ± 110 | 5 to 7 | only slight reductions | partly protecting
